Activity calls are given as the source filed them. No cut-off for these calls is given here.

Assay [1] addresses T1, Muscarinic acetylcholine receptor M1 (Homo sapiens) (UniProt P11229).
T1 sequence (whole entry): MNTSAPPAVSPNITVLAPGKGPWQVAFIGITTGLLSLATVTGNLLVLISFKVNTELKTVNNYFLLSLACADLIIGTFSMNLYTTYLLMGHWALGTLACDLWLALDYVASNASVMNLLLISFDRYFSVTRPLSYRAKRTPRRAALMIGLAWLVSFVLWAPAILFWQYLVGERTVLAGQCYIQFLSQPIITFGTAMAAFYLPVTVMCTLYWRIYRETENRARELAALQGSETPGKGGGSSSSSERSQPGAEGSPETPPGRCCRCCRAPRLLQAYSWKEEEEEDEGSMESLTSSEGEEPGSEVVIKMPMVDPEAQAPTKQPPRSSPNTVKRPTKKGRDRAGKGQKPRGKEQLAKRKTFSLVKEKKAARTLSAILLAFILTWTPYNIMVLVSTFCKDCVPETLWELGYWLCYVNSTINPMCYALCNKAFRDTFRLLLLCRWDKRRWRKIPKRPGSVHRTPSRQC
Briefly: Partial agonist activity at N-terminal FLAG tagged/C-terminal NanoLuc tagged human muscarinic M1 receptor expressed in HEK293T cells using furimazine as substrate assessed as receptor activation at 100 uM preincubated with substrate for 1 min followed by compound addition and measured for 6 mins 27 sec by NanoBRET assay. The class given is cell-based. The conditions noted are these: time 387.0 sec. For orientation: Bioluminescence resonance energy transfer reports proximity on the nanometre scale.

Assay [2] deals with T2, Muscarinic acetylcholine receptor M3 (Homo sapiens, UniProt P20309). Briefly: Partial agonist activity at C-terminal NanoLuc tagged human muscarinic M3 receptor expressed in HEK293T cells using furimazine as substrate assessed as receptor activation at 100 uM preincubated with substrate for 1 min followed by compound addition and measured for 6 mins 27 sec by NanoBRET assay. To be noted: time 387.0 sec. The format is cell-based.
Target sequence in this assay (P20309 whole entry, looked up): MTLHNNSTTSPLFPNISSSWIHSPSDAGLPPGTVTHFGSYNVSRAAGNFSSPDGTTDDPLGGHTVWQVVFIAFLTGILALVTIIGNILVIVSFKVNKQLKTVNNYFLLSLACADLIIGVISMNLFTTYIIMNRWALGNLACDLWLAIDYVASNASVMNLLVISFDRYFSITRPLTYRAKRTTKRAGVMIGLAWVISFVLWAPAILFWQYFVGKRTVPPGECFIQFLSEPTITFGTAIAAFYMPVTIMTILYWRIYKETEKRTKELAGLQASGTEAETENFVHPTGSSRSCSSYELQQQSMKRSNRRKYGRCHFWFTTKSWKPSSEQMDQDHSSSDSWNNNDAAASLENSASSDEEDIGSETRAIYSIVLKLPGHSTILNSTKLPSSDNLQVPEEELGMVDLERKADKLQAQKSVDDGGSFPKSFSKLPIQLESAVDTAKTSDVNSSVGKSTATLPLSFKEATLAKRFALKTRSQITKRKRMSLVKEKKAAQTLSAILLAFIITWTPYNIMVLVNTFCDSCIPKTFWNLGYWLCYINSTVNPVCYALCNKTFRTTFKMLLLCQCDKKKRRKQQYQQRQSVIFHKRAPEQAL

Assay [3] deals with T3, Muscarinic acetylcholine receptor M5 (Homo sapiens) (UniProt P08912).
T3 sequence (whole entry): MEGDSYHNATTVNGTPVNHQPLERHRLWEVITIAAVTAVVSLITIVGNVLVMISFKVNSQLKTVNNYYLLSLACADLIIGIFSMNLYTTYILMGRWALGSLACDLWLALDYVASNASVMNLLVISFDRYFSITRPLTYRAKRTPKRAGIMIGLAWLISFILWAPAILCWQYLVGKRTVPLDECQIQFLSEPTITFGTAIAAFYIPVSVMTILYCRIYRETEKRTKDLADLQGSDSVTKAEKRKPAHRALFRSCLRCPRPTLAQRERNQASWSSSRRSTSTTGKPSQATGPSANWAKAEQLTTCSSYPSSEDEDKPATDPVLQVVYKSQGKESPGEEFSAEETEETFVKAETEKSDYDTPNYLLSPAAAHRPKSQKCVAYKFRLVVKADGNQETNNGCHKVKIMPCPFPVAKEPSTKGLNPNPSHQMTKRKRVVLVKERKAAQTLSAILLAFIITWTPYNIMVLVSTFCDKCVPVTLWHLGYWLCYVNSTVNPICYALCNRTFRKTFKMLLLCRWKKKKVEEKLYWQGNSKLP
Briefly: Partial agonist activity at N-terminal FLAG tagged/C-terminal NanoLuc tagged human muscarinic M5 receptor expressed in HEK293T cells using furimazine as substrate assessed as receptor activation at 100 uM preincubated with substrate for 1 min followed by compound addition and measured for 6 mins 27 sec by NanoBRET assay. The format is cell-based. The conditions noted are these: time 387.0 sec.

Assay [4] addresses T4, Muscarinic acetylcholine receptor M4 (Homo sapiens, UniProt P08173).
T4 sequence (P08173 whole entry): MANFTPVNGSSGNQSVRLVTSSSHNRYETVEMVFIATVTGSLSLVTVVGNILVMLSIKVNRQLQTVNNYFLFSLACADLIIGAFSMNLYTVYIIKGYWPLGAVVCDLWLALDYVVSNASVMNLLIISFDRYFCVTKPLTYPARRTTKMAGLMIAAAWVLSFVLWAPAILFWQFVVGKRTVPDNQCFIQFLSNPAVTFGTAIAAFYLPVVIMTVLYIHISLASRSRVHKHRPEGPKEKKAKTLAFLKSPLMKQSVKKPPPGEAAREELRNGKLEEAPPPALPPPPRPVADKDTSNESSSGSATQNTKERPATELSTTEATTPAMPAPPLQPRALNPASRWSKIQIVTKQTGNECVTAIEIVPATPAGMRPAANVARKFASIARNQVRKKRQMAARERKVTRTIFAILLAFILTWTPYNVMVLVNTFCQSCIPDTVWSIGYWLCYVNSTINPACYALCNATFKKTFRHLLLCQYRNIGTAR
Description: Partial agonist activity at N-terminal FLAG tagged/C-terminal NanoLuc tagged human muscarinic M4 receptor expressed in HEK293T cells using furimazine as substrate assessed as receptor activation preincubated with substrate for 1 min followed by compound addition and measured for 6 mins 27 sec by NanoBRET assay

In assay [5] the target is T5, Muscarinic acetylcholine receptor M1 (Homo sapiens, UniProt P11229).
T5 sequence (P11229 whole entry): T1 sequence (whole entry)
Description: Partial agonist activity at N-terminal FLAG tagged/C-terminal NanoLuc tagged human muscarinic M1 receptor expressed in HEK293T cells using furimazine as substrate assessed as receptor activation preincubated with substrate for 1 min followed by compound addition and measured for 6 mins 27 sec by NanoBRET assay

In assay [6] the target is T6, Muscarinic acetylcholine receptor M2 (Homo sapiens, UniProt P08172).
T6 sequence (P08172 whole entry): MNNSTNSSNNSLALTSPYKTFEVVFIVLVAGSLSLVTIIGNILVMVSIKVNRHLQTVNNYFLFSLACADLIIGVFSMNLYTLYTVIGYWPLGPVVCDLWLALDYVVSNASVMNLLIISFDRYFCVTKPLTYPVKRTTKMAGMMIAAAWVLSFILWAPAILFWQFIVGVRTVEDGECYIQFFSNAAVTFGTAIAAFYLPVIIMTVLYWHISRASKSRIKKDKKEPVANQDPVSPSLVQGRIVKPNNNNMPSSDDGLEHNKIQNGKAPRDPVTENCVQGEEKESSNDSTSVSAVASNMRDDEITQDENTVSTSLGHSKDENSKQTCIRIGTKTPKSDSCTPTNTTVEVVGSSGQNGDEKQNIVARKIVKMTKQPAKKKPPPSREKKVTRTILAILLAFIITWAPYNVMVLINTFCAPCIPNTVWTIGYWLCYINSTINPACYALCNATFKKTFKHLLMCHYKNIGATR
Description: Partial agonist activity at C-terminal NanoLuc tagged human muscarinic M2 receptor expressed in HEK293T cells using furimazine as substrate assessed as receptor activation preincubated with substrate for 1 min followed by compound addition and measured for 6 mins 27 sec by NanoBRET assay

The target in assay [7] is T2, Muscarinic acetylcholine receptor M3.
Target sequence in this assay (P20309 whole entry): as the sequence (P20309 whole entry, looked up) above
Description: Partial agonist activity at C-terminal NanoLuc tagged human muscarinic M3 receptor expressed in HEK293T cells using furimazine as substrate assessed as receptor activation preincubated with substrate for 1 min followed by compound addition and measured for 6 mins 27 sec by NanoBRET assay
Assay [8] concerns the target T7, Muscarinic acetylcholine receptor M4 (Homo sapiens) (UniProt P08173).
T7 sequence (whole entry): T4 sequence (P08173 whole entry)
Briefly: Partial agonist activity at N-terminal FLAG tagged/C-terminal NanoLuc tagged human muscarinic M4 receptor expressed in HEK293T cells using furimazine as substrate assessed as receptor activation at 100 uM preincubated with substrate for 1 min followed by compound addition and measured for 6 mins 27 sec by NanoBRET assay. The class given is cell-based. The conditions noted are these: time 387.0 sec.

In assay [9] the target is T8, Muscarinic acetylcholine receptor M5 (Homo sapiens, UniProt P08912).
T8 sequence (P08912 whole entry): T3 sequence (whole entry)
Description: Partial agonist activity at N-terminal FLAG tagged/C-terminal NanoLuc tagged human muscarinic M5 receptor expressed in HEK293T cells using furimazine as substrate assessed as receptor activation preincubated with substrate for 1 min followed by compound addition and measured for 6 mins 27 sec by NanoBRET assay

What is called EC50 is the concentration that produces a half-maximal response. On to `CC[C@@H]1C(=O)OC[C@@H]1Cc1c[n+](CCCCCCCC[N+](C)(C)CC(C)(C)CN2C(=O)c3cccc4cccc(c34)C2=O)cn1C`, for which the outcome in assay [1], in assay [2] and in [3] was inactive. This compound showed a concentration giving a half-maximal response (EC50) in assay [4] of 0.0955 µM.
Take `CC[C@H]1C(=O)OC[C@@H]1Cc1c[n+](CCCCCC[N+](C)(C)CC(C)(C)CN2C(=O)c3cccc4cccc(c34)C2=O)cn1C`: the EC50 was 1.74 µM in assay [5], 0.537 µM in [6] and 2.82 µM in assay [7].
For `Cn1cncc1C[C@H]1COC(=O)C1` [PILOSININE], the result in assay [1], in [2] and in assay [8] was inactive. This compound also showed an EC50 in assay [9] of 26.3 µM.
On to `CC[C@@H]1C(=O)OC[C@@H]1Cc1c[n+](CCCCCC[N+](C)(C)CC(C)(C)CN2C(=O)c3cccc4cccc(c34)C2=O)cn1C`, for which the figures for the EC50 in assay [5], in assay [6] and in [7] were 34.7 µM, 1.07 µM and 16.2 µM, respectively.
On to `CC(C)(CN1C(=O)c2cccc3cccc(c23)C1=O)C[N+](C)(C)CCCCCC[n+]1c[nH]c(CC2COC(=O)C2)c1` (configuration not stated), for which the outcome in [2] and in assay [3] was inactive. The EC50 in assay [5] was 0.251 µM; in assay [6], 0.251 µM; in assay [4], 2.63 µM.
Regarding `O=C1C[C@@H](Cc2cnc[nH]2)CO1`, the EC50 in assay [5] was 6.17 µM; in assay [6], 1.38 µM; in assay [7], 20.9 µM; in assay [4], 7.41 µM; in assay [9], 14.8 µM.
On to `Cn1c[n+](CCCCCC[N+](C)(C)CC(C)(C)CN2C(=O)c3cccc4cccc(c34)C2=O)cc1CC1COC(=O)C1` (configuration not stated), for which the outcome in assay [1], in assay [2] and in assay [3] was inactive. Besides, the half-maximal effective concentration (EC50) in assay [4] is 36.3 µM.
`CC[C@H]1C(=O)OC[C@@H]1Cc1c[n+](CCCCCCCC[N+](C)(C)CC(C)(C)CN2C(=O)c3cccc4cccc(c34)C2=O)cn1C`: the result in assay [1], in assay [8] and in assay [3] was inactive. Moreover, in [7], the response was half-maximal at 31.6 µM (EC50).

(Values after ChEMBL document CHEMBL5257088 (J Nat Prod, 2023).)
